Several values for one entry are separate records, joined by “and”; a condition that tells them apart may be missing. Equal entries are not always repeated.

The inhibition is the drop in the measured response relative to a control, in per cent. A higher inhibition goes with strong suppression.

The experiment deals with T1, Chymotrypsin-like elastase family member 2A (Sus scrofa) (UniProt P08419).
T1 sequence (whole entry): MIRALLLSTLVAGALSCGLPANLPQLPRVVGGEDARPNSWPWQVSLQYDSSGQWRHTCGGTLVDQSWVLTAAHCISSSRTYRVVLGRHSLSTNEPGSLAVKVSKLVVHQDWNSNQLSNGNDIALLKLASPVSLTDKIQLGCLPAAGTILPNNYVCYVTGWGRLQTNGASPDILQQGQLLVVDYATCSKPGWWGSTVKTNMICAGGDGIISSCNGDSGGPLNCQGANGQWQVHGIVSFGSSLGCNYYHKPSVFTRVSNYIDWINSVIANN
In words: Compound was tested in vitro for its ability to inhibit Pancreatic elastase catalyzed hydrolysis of substrate with 10 min pre-incubation.

`COC(=O)[C@@H]1N2C(=O)[C@@H](Cl)[C@H]2S(=O)(=O)C1(C)C`: the inhibition is 44% and 40%.
